Source: patent US20080097110A1, “Salt forms of substituted benzothienyl compounds” (priority 2006, published 2008)

Legend:
[1] = Dynamic vapor sorption (DVS) testing of salt forms; format: physicochemical
Protocol: Dynamic vapor sorption (DVS) testing was performed on several salt forms and sorption and desorption results under various relative humidity (RH) conditions are shown in Table 3.

[2] = Equilibrium solubility testing of salt forms; format: physicochemical
Protocol: Solubility testing was performed on several salt forms and results for free compound (mg) in media (ml) (represented as mg/ml) at equilibrium solubility are shown in Table 4. SIF refers to simulated intestinal fluid.

CP(=O)([O-])C(C(=O)N/C=C/c1ccc(F)c(F)c1)c1csc2ccc(Cl)cc12.[K+] (centres unmarked) [Form F3]
Sorption ([1]; 0-60% RH): 0-60% RH: 0.00%
Sorption ([1]; 0-90% RH): 0-90% RH: 11.35%
Sorption ([1]; 60-70% RH): 60-70% RH: 0.30%
Sorption ([1]; 70-80% RH): 70-80% RH: 2.46%
Sorption ([1]; 80-90% RH): 80-90% RH: 8.59%
Desorption ([1]; 90-0% RH): 90-0% RH: 16.81%

CO.CP(=O)(O)C(C(=O)N/C=C/c1ccc(F)c(F)c1)c1csc2ccc(Cl)cc12 (centres unmarked) [Form A]
Sorption ([1]; 0-30% RH): 0-30% RH: 0.34%
Sorption ([1]; 0-90% RH): 0-90% RH: 2.94%
Desorption ([1]; 30-0% RH): 30-0% RH: 7.14%
Sorption ([1]; 30-90% RH): 30-90% RH: 2.60%
Desorption ([1]; 90-30% RH): 90-30% RH: 1.48%
Equilibrium solubility, free compound (mg) in media (ml) ([2]; media 0.1N HCL, pH 1.50 (A), 1.40 (Compound 1b), 1.51 (B1)): 5.7 mg/mL
Equilibrium solubility, free compound (mg) in media (ml) ([2]; media 0.1N NaOH, pH 4.47 (A), 11.78 (Compound 1b), 8.88 (B1)): 46.5 mg/mL
Equilibrium solubility, free compound (mg) in media (ml) ([2]; media SIF (simulated intestinal fluid), pH 4.78 (A), 7.85 (Compound 1b), 7.65 (B1)): 18.7 mg/mL

CNC[C@H](O)[C@@H](O)[C@H](O)[C@H](O)CO.CP(=O)(O)C(C(=O)N/C=C/c1ccc(F)c(F)c1)c1csc2ccc(Cl)cc12 (centres unmarked) [Form C2]
Sorption ([1]; 0-80% RH): 0-80% RH: 3.68%
Sorption ([1]; 0-90% RH): 0-90% RH: 5.52%
Desorption ([1]; 10-0% RH): 10-0% RH: 2.75%
Sorption ([1]; 80-90% RH): 80-90% RH: 1.84%
Desorption ([1]; 90-0% RH): 90-0% RH: 6.66%
Desorption ([1]; 90-10% RH): 90-10% RH: 3.91%
Solubility (remained in solution; equilibrium solubility could not be determined) ([2]; media not stated): > 232 mg/mL

CP(=O)(O)C(C(=O)N/C=C/c1ccc(F)c(F)c1)c1csc2ccc(Cl)cc12.NC(CO)(CO)CO (centres unmarked) [Form B2]
Sorption ([1]; 0-90% RH): 0-90% RH: 2.085%
Desorption ([1]; 90-0% RH): 90-0% RH: 2.231%

CP(=O)([O-])C(C(=O)N/C=C/c1ccc(F)c(F)c1)c1csc2ccc(Cl)cc12.[K+] (centres unmarked) [Form F1]
Sorption ([1]; 0-60% RH): 0-60% RH: 0.00%
Sorption ([1]; 0-90% RH): 0-90% RH: 11.35%
Sorption ([1]; 60-70% RH): 60-70% RH: 0.30%
Sorption ([1]; 70-80% RH): 70-80% RH: 2.46%
Sorption ([1]; 80-90% RH): 80-90% RH: 8.59%
Desorption ([1]; 90-0% RH): 90-0% RH: 16.81%

CP(=O)([O-])C(C(=O)N/C=C/c1ccc(F)c(F)c1)c1csc2ccc(Cl)cc12.[K+] (centres unmarked) [Form F2]
Sorption ([1]; 0-60% RH): 0-60% RH: 0.00%
Sorption ([1]; 0-90% RH): 0-90% RH: 11.35%
Sorption ([1]; 60-70% RH): 60-70% RH: 0.30%
Sorption ([1]; 70-80% RH): 70-80% RH: 2.46%
Sorption ([1]; 80-90% RH): 80-90% RH: 8.59%
Desorption ([1]; 90-0% RH): 90-0% RH: 16.81%

CP(=O)(O)C(C(=O)N/C=C/c1ccc(F)c(F)c1)c1csc2ccc(Cl)cc12.NC(CO)(CO)CO (centres unmarked) [Form B1]
Equilibrium solubility, free compound (mg) in media (ml) ([2]; pH 1.5): 1.7 mg/mL
Equilibrium solubility, free compound (mg) in media (ml) ([2]; pH 4.47): 42.2 mg/mL
Equilibrium solubility, free compound (mg) in media (ml) ([2]; pH 4.78): 14.6 mg/mL
